In ChEMBL document CHEMBL5678812, “Inhibitors of p21-activated kinases (PAKs)” (J Med Chem, 2015):

Assays:
[1] = target: Tyrosine-protein kinase ABL2 (Homo sapiens) (UniProt P42684); assay: Inhibition of Arg (unknown origin) at 0.1 uM relative to control
[2] = target: Ephrin type-B receptor 4 (Homo sapiens) (UniProt P54760); assay: Inhibition of EphB4 (unknown origin) at 0.1 uM relative to control
[3] = target: Serine/threonine-protein kinase 24 (Homo sapiens) (UniProt Q9Y6E0); assay: Inhibition of MST3 (unknown origin) at 0.1 uM relative to control
[4] = target: High affinity nerve growth factor receptor (Homo sapiens) (UniProt P04629); assay: Inhibition of TrkA (unknown origin) at 0.1 uM relative to control
[5] = target: Mitogen-activated protein kinase kinase kinase kinase 4 (Homo sapiens) (UniProt O95819); assay: Inhibition of MAP4K4 (unknown origin) at 0.1 uM relative to control
[6] = target: Platelet-derived growth factor receptor beta (Homo sapiens) (UniProt P09619); assay: Inhibition of PDGFRbeta (unknown origin) at 0.1 uM relative to control
[7] = target: Mitogen-activated protein kinase kinase kinase kinase 2 (Homo sapiens) (UniProt Q12851); assay: Inhibition of GCK (unknown origin) at 0.1 uM relative to control
[8] = target: Cytoplasmic tyrosine-protein kinase BMX (Homo sapiens) (UniProt P51813); assay: Inhibition of Bmx (unknown origin) at 0.1 uM relative to control
Chain of Cytoplasmic tyrosine-protein kinase BMX (Homo sapiens) (P51813 whole entry): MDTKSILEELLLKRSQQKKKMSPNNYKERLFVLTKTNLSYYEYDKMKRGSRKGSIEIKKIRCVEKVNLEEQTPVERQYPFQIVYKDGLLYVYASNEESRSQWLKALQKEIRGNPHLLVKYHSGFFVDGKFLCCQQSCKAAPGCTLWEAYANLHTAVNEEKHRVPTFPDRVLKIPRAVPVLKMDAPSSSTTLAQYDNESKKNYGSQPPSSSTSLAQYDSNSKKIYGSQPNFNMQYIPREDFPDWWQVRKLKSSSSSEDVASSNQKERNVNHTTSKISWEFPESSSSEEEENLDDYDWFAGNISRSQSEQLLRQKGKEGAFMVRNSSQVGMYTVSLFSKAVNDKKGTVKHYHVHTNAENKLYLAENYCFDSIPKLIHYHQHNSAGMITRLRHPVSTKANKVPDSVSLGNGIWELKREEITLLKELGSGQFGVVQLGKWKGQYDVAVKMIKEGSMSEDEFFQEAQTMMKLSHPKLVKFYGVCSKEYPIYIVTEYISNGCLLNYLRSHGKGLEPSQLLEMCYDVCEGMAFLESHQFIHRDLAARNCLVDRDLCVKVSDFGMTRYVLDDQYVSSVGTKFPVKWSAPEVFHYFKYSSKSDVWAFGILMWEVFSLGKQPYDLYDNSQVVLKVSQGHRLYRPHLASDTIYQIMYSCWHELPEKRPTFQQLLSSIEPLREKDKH

[9] = target: Ephrin type-A receptor 1 (Homo sapiens) (UniProt P21709); assay: Inhibition of EphA1 (unknown origin) at 0.1 uM relative to control
[10] = target: Serine/threonine-protein kinase Chk1 (Homo sapiens) (UniProt O14757); assay: Inhibition of CHK1 (unknown origin) at 0.1 uM relative to control
[11] = target: Mitogen-activated protein kinase 14 (Homo sapiens) (UniProt Q16539); assay: Inhibition of p38alpha (unknown origin) at 0.1 uM relative to control
[12] = target: Proto-oncogene tyrosine-protein kinase Src (Homo sapiens) (UniProt P12931); assay: Inhibition of Src (unknown origin) at 0.1 uM relative to control
Chain of Proto-oncogene tyrosine-protein kinase Src (Homo sapiens) (P12931 2-536 limits assumed): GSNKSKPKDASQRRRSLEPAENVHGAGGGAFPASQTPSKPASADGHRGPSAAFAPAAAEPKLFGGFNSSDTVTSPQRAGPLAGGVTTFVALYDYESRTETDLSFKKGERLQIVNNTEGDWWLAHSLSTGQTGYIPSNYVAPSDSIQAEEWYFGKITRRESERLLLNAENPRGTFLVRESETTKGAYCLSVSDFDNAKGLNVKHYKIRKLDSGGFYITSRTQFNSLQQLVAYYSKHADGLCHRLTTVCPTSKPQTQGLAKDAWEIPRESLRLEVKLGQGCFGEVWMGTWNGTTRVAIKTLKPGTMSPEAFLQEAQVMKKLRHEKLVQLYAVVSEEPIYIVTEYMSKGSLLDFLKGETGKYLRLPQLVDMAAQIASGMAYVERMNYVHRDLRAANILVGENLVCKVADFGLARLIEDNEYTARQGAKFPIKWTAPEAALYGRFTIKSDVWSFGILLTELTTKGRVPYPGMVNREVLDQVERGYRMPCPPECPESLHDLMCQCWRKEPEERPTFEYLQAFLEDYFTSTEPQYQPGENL

[13] = target: Insulin receptor-related protein (Homo sapiens) (UniProt P14616); assay: Inhibition of IRR (unknown origin) at 0.1 uM relative to control
Chain of Insulin receptor-related protein (Homo sapiens) (P14616 27-742 limits assumed): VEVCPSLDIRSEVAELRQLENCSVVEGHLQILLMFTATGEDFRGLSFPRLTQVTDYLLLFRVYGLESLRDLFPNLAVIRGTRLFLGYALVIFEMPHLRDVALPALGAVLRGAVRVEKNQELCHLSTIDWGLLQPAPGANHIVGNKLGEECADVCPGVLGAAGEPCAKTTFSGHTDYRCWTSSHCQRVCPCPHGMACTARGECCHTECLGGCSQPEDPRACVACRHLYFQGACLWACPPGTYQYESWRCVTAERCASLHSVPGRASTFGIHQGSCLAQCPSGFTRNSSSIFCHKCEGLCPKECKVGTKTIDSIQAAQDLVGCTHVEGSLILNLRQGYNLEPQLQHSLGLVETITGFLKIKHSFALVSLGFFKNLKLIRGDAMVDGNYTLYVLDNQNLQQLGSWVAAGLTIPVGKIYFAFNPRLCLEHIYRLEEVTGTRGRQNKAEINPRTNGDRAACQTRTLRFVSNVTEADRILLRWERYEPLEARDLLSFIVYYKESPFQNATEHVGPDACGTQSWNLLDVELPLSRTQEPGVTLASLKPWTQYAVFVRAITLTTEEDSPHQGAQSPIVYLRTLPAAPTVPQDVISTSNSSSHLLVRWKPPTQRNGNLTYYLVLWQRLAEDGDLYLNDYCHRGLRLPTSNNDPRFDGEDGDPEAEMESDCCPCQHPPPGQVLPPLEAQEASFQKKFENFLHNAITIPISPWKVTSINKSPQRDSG
Chain of Insulin receptor-related protein (Homo sapiens) (P14616 747-1297 limits assumed): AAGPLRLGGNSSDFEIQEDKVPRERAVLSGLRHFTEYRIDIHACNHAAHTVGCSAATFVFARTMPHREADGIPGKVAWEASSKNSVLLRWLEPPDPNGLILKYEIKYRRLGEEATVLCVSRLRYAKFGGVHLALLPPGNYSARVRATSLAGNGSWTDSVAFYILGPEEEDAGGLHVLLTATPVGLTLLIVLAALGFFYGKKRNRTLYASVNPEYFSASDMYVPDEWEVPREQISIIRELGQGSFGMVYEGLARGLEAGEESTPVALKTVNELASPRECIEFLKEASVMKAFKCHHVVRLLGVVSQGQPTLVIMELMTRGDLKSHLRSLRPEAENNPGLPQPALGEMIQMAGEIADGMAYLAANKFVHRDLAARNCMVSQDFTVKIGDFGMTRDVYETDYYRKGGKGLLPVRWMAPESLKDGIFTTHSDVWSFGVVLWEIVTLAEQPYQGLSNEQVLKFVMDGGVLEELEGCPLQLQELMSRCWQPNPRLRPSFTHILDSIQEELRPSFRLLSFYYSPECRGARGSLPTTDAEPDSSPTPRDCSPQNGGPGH

[14] = target: Ephrin type-A receptor 2 (Homo sapiens) (UniProt P29317); assay: Inhibition of EphA2 (unknown origin) at 0.1 uM relative to control
[15] = target: Serine/threonine-protein kinase TBK1 (Homo sapiens) (UniProt Q9UHD2); assay: Inhibition of TBK1 (unknown origin) at 0.1 uM relative to control
Homo sapiens = species: Homo sapiens; assay: Inhibition of PDGFRalpha V560D mutant (unknown origin) at 0.1 uM relative to control
[16] = target: RAC-alpha serine/threonine-protein kinase (Homo sapiens) (UniProt P31749); assay: Inhibition of AKT1 (unknown origin) at 0.1 uM relative to control
[17] = target: Glycogen synthase kinase-3 beta (Homo sapiens) (UniProt P49841); assay: Inhibition of GSK beta (unknown origin) at 0.1 uM relative to control
[18] = target: Serine/threonine-protein kinase MARK1 (Homo sapiens) (UniProt Q9P0L2); assay: Inhibition of MARK1 (unknown origin) at 0.1 uM relative to control
Chain of Serine/threonine-protein kinase MARK1 (Homo sapiens) (Q9P0L2 whole entry, looked up): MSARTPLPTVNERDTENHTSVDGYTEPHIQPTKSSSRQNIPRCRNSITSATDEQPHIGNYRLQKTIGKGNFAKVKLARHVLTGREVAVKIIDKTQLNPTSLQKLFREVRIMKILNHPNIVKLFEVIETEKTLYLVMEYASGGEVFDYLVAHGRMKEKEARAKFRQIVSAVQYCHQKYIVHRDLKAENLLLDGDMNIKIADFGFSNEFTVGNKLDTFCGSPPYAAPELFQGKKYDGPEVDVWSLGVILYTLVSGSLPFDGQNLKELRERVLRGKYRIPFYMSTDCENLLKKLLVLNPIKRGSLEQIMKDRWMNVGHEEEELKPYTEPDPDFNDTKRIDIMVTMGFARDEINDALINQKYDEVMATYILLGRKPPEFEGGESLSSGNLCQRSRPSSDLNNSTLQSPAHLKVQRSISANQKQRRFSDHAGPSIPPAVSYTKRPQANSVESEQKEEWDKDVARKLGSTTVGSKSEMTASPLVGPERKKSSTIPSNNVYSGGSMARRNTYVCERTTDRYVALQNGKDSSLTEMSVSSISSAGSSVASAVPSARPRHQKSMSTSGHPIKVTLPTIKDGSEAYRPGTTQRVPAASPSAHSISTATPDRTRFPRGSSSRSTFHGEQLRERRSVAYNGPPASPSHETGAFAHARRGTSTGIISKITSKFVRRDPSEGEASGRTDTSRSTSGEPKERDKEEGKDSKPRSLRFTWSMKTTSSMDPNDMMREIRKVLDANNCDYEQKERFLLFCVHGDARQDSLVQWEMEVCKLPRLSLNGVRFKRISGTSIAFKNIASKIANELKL

[19] = target: Serine/threonine-protein kinase D1 (Homo sapiens) (UniProt Q15139); assay: Inhibition of PKD1 (unknown origin) at 0.1 uM relative to control
[20] = target: Aurora kinase A (Homo sapiens) (UniProt O14965); assay: Inhibition of Aurora A (unknown origin) at 0.1 uM relative to control
[21] = target: Tyrosine-protein kinase Mer (Homo sapiens) (UniProt Q12866); assay: Inhibition of Mer (unknown origin) at 0.1 uM relative to control
[22] = target: Serine/threonine-protein kinase TAO1 (Homo sapiens) (UniProt Q7L7X3); assay: Inhibition of TAO1 (unknown origin) at 0.1 uM relative to control
[23] = target: Vascular endothelial growth factor receptor 1 (Homo sapiens) (UniProt P17948); assay: Inhibition of Flt1 (unknown origin) at 0.1 uM relative to control
[24] = target: Epidermal growth factor receptor (Homo sapiens) (UniProt P00533); assay: Inhibition of EGFR (unknown origin) at 0.1 uM relative to control
[25] = target: Mast/stem cell growth factor receptor Kit (Homo sapiens) (UniProt P10721); assay: Inhibition of Kit (unknown origin) at 0.1 uM relative to control
[26] = target: Testis-specific serine/threonine-protein kinase 1 (Homo sapiens) (UniProt Q9BXA7); assay: Inhibition of TSSK1 (unknown origin) at 0.1 uM relative to control
[27] = target: Casein kinase I isoform gamma-2 (Homo sapiens) (UniProt P78368); assay: Inhibition of CK1gamma2 (unknown origin) at 0.1 uM relative to control
[28] = target: Serine/threonine-protein kinase Sgk3 (Homo sapiens) (UniProt Q96BR1); assay: Inhibition of SGK3 (unknown origin) at 0.1 uM relative to control
[29] = target: Misshapen-like kinase 1 (Homo sapiens) (UniProt Q8N4C8); assay: Inhibition of Mink1 (unknown origin) at 0.1 uM relative to control
[30] = target: Receptor-type tyrosine-protein kinase FLT3 (Homo sapiens) (UniProt P36888); assay: Inhibition of Flt3 (unknown origin) at 0.1 uM relative to control
[31] = target: Dual specificity tyrosine-phosphorylation-regulated kinase 3 (Homo sapiens) (UniProt O43781); assay: Inhibition of DYRK3 (unknown origin) at 0.1 uM relative to control
[32] = target: Protein-tyrosine kinase 6 (Homo sapiens) (UniProt Q13882); assay: Inhibition of Brk (unknown origin) at 0.1 uM relative to control
[33] = target: 5'-AMP-activated protein kinase catalytic subunit alpha-1 (Homo sapiens) (UniProt Q13131); assay: Inhibition of PRKAA1 (unknown origin) at 0.1 uM relative to control
Chain of 5'-AMP-activated protein kinase catalytic subunit alpha-1 (Homo sapiens) (Q13131 whole entry, looked up): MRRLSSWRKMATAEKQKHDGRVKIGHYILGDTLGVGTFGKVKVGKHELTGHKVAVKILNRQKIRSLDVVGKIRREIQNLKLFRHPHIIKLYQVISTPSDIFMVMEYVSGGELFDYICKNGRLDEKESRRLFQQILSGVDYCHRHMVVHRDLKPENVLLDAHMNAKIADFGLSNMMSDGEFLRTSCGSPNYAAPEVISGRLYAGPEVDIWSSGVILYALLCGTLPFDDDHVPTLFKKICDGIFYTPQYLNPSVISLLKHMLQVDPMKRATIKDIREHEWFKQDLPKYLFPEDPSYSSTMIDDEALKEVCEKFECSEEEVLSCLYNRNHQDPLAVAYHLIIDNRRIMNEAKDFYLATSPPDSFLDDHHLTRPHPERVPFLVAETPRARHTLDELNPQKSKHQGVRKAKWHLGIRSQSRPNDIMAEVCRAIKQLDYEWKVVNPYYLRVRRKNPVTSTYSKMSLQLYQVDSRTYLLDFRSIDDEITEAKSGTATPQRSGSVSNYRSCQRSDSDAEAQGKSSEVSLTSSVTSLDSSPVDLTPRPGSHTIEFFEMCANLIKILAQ

[34] = target: Tyrosine-protein kinase JAK3 (Homo sapiens) (UniProt P52333); assay: Inhibition of JAK3 (unknown origin) at 0.1 uM relative to control
[35] = target: Serine/threonine-protein kinase PAK 2 (Homo sapiens, UniProt Q13177); assay: Inhibition of PAK2 (unknown origin) at 0.1 uM relative to control
[36] = target: Mitogen-activated protein kinase 8 (Homo sapiens) (UniProt P45983); assay: Inhibition of JNK1alpha1 (unknown origin) at 0.1 uM relative to control
Chain of Mitogen-activated protein kinase 8 (Homo sapiens) (P45983 whole entry): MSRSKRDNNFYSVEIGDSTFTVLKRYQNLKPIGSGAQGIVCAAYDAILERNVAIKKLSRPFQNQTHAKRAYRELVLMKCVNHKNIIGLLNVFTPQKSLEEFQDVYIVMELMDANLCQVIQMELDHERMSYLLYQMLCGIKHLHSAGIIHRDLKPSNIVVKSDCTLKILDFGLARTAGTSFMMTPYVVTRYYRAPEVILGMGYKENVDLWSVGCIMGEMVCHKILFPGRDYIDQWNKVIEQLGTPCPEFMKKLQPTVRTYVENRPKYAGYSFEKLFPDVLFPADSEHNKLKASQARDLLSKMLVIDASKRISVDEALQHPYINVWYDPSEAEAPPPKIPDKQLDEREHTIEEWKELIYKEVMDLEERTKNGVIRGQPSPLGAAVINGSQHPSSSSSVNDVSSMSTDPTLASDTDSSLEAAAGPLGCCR

[37] = target: Serine/threonine-protein kinase Nek1 (Homo sapiens) (UniProt Q96PY6); assay: Inhibition of NEK1 (unknown origin) at 0.1 uM relative to control
[38] = target: Mitogen-activated protein kinase 10 (Homo sapiens) (UniProt P53779); assay: Inhibition of JNK3 (unknown origin) at 0.1 uM relative to control
Chain of Mitogen-activated protein kinase 10 (Homo sapiens) (P53779 whole entry): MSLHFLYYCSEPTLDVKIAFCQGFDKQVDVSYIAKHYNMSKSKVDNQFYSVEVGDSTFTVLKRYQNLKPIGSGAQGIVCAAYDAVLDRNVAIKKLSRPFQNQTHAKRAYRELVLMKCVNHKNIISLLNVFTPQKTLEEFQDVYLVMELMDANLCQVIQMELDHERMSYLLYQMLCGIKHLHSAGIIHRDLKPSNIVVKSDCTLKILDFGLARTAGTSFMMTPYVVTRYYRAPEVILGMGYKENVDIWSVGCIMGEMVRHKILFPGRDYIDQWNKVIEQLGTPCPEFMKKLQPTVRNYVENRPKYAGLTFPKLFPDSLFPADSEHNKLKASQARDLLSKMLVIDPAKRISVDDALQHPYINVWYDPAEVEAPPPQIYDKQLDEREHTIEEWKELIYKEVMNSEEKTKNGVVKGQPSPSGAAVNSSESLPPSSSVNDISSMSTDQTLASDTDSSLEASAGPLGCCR

[39] = target: Tyrosine-protein kinase BTK (Homo sapiens) (UniProt Q06187); assay: Inhibition of BTK (unknown origin) at 0.1 uM relative to control

Row | SMILES | inhibition [1] [%] | inhibition [2] [%] | inhibition [3] [%] | inhibition [4] [%] | inhibition [5] [%] | inhibition [6] [%] | inhibition [7] [%] | inhibition [8] [%] | inhibition [9] [%] | inhibition [10] [%] | inhibition [11] [%] | inhibition [12] [%] | inhibition [13] [%] | inhibition [14] [%] | inhibition [15] [%] | inhibition (Homo sapiens) [%] | inhibition [16] [%] | inhibition [17] [%] | inhibition [18] [%] | inhibition [19] [%] | other results
1 | COCCNc1nc2ccc(C#CC3(O)CCCCC3)cc2n1-c1ccnc(N)n1 | 10.2 | 5.3 | 5.9 | 9 | 14.6 | 0.7 | 1 | 11.6 | 5 | -3.5 | 4.4 | 1.9 | 7.4 | 15 | 11.6 | -3.5 | 1.1 | 4.6 | 11.3 | 16.4 | inhibition [20]: 10.3%; inhibition [21]: 8.2%; inhibition [22]: -0.2%; inhibition [23]: -6%; inhibition [24]: 2.4%; inhibition [25]: -5.5%; inhibition [26]: 6.2%; inhibition [27]: 18.3%; inhibition [28]: 9.3%; inhibition [29]: 4.4%; inhibition [30]: 8.7%; inhibition [31]: 0.9%; inhibition [32]: 10.2%; inhibition [33]: 10.6%; inhibition [34]: -1.3%; inhibition [35]: 14.9%; inhibition [36]: 4.1%; inhibition [37]: 0.3%; inhibition [38]: 2.7%; inhibition [39]: 0.8%
2 | CN1CCc2cc(-c3cnc4[nH]cc(C(=O)c5ccccc5Cl)c4c3)ccc2C1 | 95.3 | 78.9 | 70.2 | 51.6 | 104 | 96 | 69.8 | 91.5 | 90.7 | 19.1 | 34.8 | 92.9 | 14.5 | 43.5 | 4.3 | 66.9 | 3.3 | 11 | 25.8 | 49.5 | inhibition [20]: 25.9%; inhibition [21]: 53.8%; inhibition [22]: 91.5%; inhibition [23]: 18.6%; inhibition [24]: 38%; inhibition [25]: 37%; inhibition [26]: 28%; inhibition [27]: -1.5%; inhibition [28]: 19.5%; inhibition [29]: 97%; inhibition [30]: 83.4%; inhibition [31]: 3.8%; inhibition [32]: 92.5%; inhibition [33]: 16%; inhibition [34]: 45.4%; inhibition [35]: 97.7%; inhibition [36]: 51%; inhibition [37]: 1.5%; inhibition [38]: 2.3%; inhibition [39]: 86.3%
